Test results as given in US9814696B2, “Use of coumarin derivatives for the preparation of drugs for treating skin diseases” (UNIVERSITE PIERRE ET MARIE CURIE (PARIS 6), priority 2011, dated 2017).

Legend:
Assay type in all cases: biochemical
KLK7 = KLK7 (Homo sapiens, UniProt P49862); assay: KLK7 enzyme inhibition assay, fluorogenic substrate Suc-Leu-Leu-Val-Tyr-AMC; settings: for inhibition at 10 µM / IC50 / inhibition at 50 µM / inhibition at 100 µM: 37° C., 15 min of incubation, pH 8; for selective activity against enzyme: KLK7: Table B, among KLK5, KLK7 and KLK14; for IC50: Table A, read-out: IC50 (μM) KLK7
Sequence of KLK7 (P49862 30-253): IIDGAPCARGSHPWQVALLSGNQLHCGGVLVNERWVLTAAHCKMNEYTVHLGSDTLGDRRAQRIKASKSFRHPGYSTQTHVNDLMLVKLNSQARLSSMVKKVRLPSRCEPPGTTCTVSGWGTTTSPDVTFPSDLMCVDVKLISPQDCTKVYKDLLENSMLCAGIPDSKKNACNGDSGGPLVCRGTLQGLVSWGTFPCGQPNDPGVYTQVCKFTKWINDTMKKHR
Experimental: (§1) Kallikreins KLK5, KLK7 and KLK14 activities were determined by monitoring the hydrolysis of the appropriate fluorogenic substrate (λexc=355, λem=460 nm) for 15 min at 37° C. in the presence of the untreated kallikrein (control) or kallikrein that had been incubated with a test compound. Substrate and compounds were previously dissolved in DMSO, with the final solvent concentration kept constant at 2% (v/v) (KLK 5 and 14), and 4% (v/v) (KLK7). The composition of the activity buffers (pH 8.0) was 100 mM Tris-HCl, 150 mM NaCl, 0.01% (v/v) Tween 20 for the KLK5 assay, and 100 mM Tris-HCl, 1M NaCl, 0.01% (v/v) Tween 20 in the KLK 7 and 14 assays. The final concentrations were 0.6 nM (KLK5) and 100 μM (Boc-Val-Pro-Arg-AMC) (KLK5 assay), 8 nM (KLK7) and 40 μM (Suc-Leu-Leu-Val-Tyr-AMC, AMC: 7-amino-4-methyl-coumarin) (KLK7 assay), and 0.17 nM (KLK14) and 10 μM (Boc-Val-Pro-Arg-AMC) (KLK14 assay). Using the appropriate substrate, the coumarinic compounds (0.01-100 μM) were tested in duplicate for each inhibitor concentration to detect their inhibitory potential. The enzyme and the inhibitors were incubated for 15 min before the determination of the enzyme activity. Initial rates determined in control experiments (V0) were considered to be 100% of the peptidase activity; initial rates below 100% were considered to be inhibitions. The inhibitory activity of compounds was expressed as IC50 (inhibitor concentrations giving 50% inhibition). The values of IC50 were calculated by fitting the experimental data to the equation: % Inhibition=100×(1−Vi/V0)=100[I]0/(IC50+[I]0), or equation: % Inhibition=100[I]0^nH/(IC50^nH+[I]0^nH),nH is the Hill number.
(§2) The tests were realized at 37° C. after 15 min of incubation at pH 8.

KLK5 = target: T1, KLK5 (Homo sapiens, UniProt Q9Y337); assay: KLK5 enzyme inhibition assay, fluorogenic substrate Boc-Val-Pro-Arg-AMC; settings: for IC50: Table A, read-out: IC50 (μM) KLK5; for IC50 / inhibition at 50 µM / inhibition at 100 µM: 37° C., 15 min of incubation, pH 8
T1 sequence (Q9Y337 23-293): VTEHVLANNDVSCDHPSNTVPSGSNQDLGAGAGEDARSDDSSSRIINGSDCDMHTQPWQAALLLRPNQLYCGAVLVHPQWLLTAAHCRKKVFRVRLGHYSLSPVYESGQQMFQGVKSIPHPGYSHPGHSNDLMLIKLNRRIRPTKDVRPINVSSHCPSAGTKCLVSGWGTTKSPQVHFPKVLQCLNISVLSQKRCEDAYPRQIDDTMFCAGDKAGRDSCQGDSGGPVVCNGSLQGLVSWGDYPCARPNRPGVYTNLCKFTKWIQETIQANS
Experimental: as §1, §2

KLK14 = target: T2, KLK14 (Homo sapiens, UniProt Q9P0G3); assay: KLK14 enzyme inhibition assay, fluorogenic substrate Boc-Val-Pro-Arg-AMC; settings: for IC50: Table A, read-out: IC50 (μM) KLK14; for IC50 / inhibition at 100 µM / inhibition at 50 µM: 37° C., 15 min of incubation, pH 8
T2 sequence (Q9P0G3 25-251): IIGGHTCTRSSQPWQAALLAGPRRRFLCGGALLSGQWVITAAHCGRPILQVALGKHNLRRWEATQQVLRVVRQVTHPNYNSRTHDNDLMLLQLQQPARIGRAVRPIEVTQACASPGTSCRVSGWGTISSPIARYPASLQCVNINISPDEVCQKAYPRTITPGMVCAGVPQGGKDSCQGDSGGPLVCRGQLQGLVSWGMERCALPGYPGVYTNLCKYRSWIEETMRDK
Experimental: as §1, §2

[1] = Table B, among KLK5, KLK7 and KLK14

Row | selective activity against enzyme: KLK7 (KLK7) | IC50 (KLK5) [µM] | IC50 (KLK7) [µM] | inhibition at 50 µM (KLK5) [%] | inhibition at 100 µM (KLK14) [%] | Compound | further results
1 | KLK7 | – | – | – | – | O=C(Oc1ccccc1Cl)c1cc2cc(O)ccc2oc1=O [MH14] | inhibition at 50 µM (KLK7): 35%
2 | – | 36.9 ± 4.2 | 5.8 ± 0.2 | – | – | O=C(O)c1ccc(Cl)cc1OC(=O)c1cc2cc(CCl)ccc2oc1=O [IK5] | IC50 (KLK14): 89 ± 10 µM
3 | – | 112 ± 6 | 1.44 ± 0.02 | – | 46 | O=C(Oc1ccccc1[N+](=O)[O-])c1cc2cc(CCl)ccc2oc1=O [LP60] | –
4 | – | – | – | 37.4 | – | O=C(O)c1ccccc1OC(=O)c1cc2cc(CCl)ccc2oc1=O [IK11] | inhibition at 100 µM (KLK7): 63%; IC50 (KLK14): 43 ± 4 µM
5 | – | – | 1.9 ± 0.1 | – | 35 | O=C(Oc1ccccc1I)c1cc2cc(CCl)ccc2oc1=O [LP15] | –
6 | – | 26.3 ± 1.4 | 2.7 ± 0.1 | – | – | COC(=O)c1ccccc1OC(=O)c1cc2cc(CCl)ccc2oc1=O [IK1] | IC50 (KLK14): 38 ± 5 µM
7 | KLK7 | – | 0.25 ± 0.01 | 26 | 30 | O=C(Oc1cccc(F)c1)c1cc2cc(CCl)ccc2oc1=O [LP51] | –
8 | – | – | 33.2 ± 1.4 | 25 | – | O=C(Oc1ccccc1)c1cc2cc(CO)ccc2oc1=O [MH30] | inhibition at 50 µM (KLK14): 32%

Second part, the compound before the results:

Row | Compound | selective activity against enzyme: KLK7 (KLK7) | IC50 (KLK5) [µM] | IC50 (KLK7) [µM] | inhibition at 50 µM (KLK5) [%] | inhibition at 100 µM (KLK14) [%] | further results
9 | CC(=O)NCc1ccc2oc(=O)c(C(=O)Oc3ccc(Br)cc3)cc2c1 [MH52] | KLK7 | – | – | – | – | inhibition at 10 µM (KLK7): 58%
10 | O=C(Oc1cc(Cl)ccc1Cl)c1cc2cc(CCl)ccc2oc1=O [LP74] | KLK7 | 1.3 ± 0.2 | 0.195 ± 0.024 | – | – | IC50 (KLK14): 54 ± 6 µM
11 | CC(=O)OCc1ccc2oc(=O)c(C(=O)Oc3cccc(Cl)c3)cc2c1 [LP46] | – | – | – | 31 | – | IC50 (KLK14): 31 ± 6 µM
12 | NCc1ccc2oc(=O)c(C(=O)Oc3ccccc3)cc2c1 [LP71] | – | 182 ± 14 | – | – | – | –
13 | O=C(Oc1cc([N+](=O)[O-])ccc1[N+](=O)[O-])c1cc2cc(CCl)ccc2oc1=O [CFL21] | – | 121 | – | – | 43 | inhibition at 100 µM (KLK7): 22%; selective activity against enzyme: KLK14 (KLK14; [1]): KLK14
14 | O=C(Oc1cncc(Cl)c1)c1cc2cc(CCl)ccc2oc1=O [LP2] | KLK7 | – | 0.128 ± 0.03 | – | – | –
15 | CCOC(=O)c1cc2cc(CCl)ccc2oc1=O [MFS3] | – | – | 20.9 ± 0.9 | 39 | 48 | –
16 | O=C(Oc1c(Cl)cccc1Cl)c1cc2cc(CCl)ccc2oc1=O [LP72] | KLK7 | 59 ± 9 | 0.495 ± 0.037 | – | 50 | –
17 | CCOC(=O)c1cc2cc(COC(C)=O)ccc2oc1=O [LP43] | – | – | – | – | 49 | inhibition at 100 µM (KLK5): 49%; inhibition at 100 µM (KLK7): 30%
18 | O=C(Oc1cc(Cl)cc(Cl)c1)c1cc2cc(CCl)ccc2oc1=O [LP75] | – | 80 ± 8 | 0.136 ± 0.012 | – | – | –
19 | Cc1ccc2oc(=O)c(C(=O)Oc3cc(F)ccc3[N+](=O)[O-])cc2c1 [CFL25] | – | 44 ± 10 | – | – | – | IC50 (KLK14): 68 ± 9 µM
20 | CC(=O)OCc1ccc2oc(=O)c(C(=O)Oc3cccc(Br)c3)cc2c1 [IK9] | – | – | – | 22 | – | selective activity against enzyme: KLK5 (KLK5; [1]): KLK5
21 | CC(=O)NCc1ccc2oc(=O)c(C(=O)Oc3cccc(Cl)c3)cc2c1 [IK53] | KLK7 | – | – | – | – | inhibition at 10 µM (KLK7): 54%
22 | O=C(Oc1ccccc1)c1cc2cc(O)c(O)cc2oc1=O [MH22] | – | – | – | 32 | – | inhibition at 50 µM (KLK7): 100%; inhibition at 50 µM (KLK14): 85%
23 | O=C(Oc1cc(F)ccc1[N+](=O)[O-])c1cc2cc(CCl)ccc2oc1=O [CFL16] | – | – | 0.9 ± 0.4 | – | 73 | inhibition at 100 µM (KLK5): 40%
